According to patent publication US9464215B2, “Use of a ketal as a solvent in adhesives and ketal-containing adhesive composition” (OXITENO S.A. INDÚSTRIA E COMÉRCIO, priority 2012, dated 2016):
In brackets after ≈: the same amount, converted by molar mass.

How the values were obtained:
[1] = system: rabbit; settings: 24 hours of exposure; cited from earlier work
[2] = system: rat; settings: 4 hours of exposure; cited from earlier work
[3] = system: rat; settings: cited from earlier work
[4] = Water solubility; assay type: physicochemical; settings: heading: Water solubility
[5] = system: rabbit; settings: cited from earlier work
[6] = Solubilization and gel formation of 2 wt% polychloroprene solution; assay type: physicochemical; settings: 2% by weight of polymer, rest for 24 hours
Description: A polychloroprene solution was prepared in 2-methyl-2-ethyl-1,3-dioxolane at a concentration of 2% by weight of the polymer, which was allowed to rest for 24 hours. […] Gel formation usually takes place by using toluene or an aromatic hydrocarbon solvent, and was not expected in the case of oxygenated solvents, such as 2-methyl-2-ethyl-1,3-dioxolane.

[7] = system: rabbit; settings: 24 hours of exposure; cited from earlier work; remark: listed apart in the source
[8] = IARC, NTP, OSHA, ACGIH; cited from earlier work

Question: What does the source list for CCC1(C)OCCO1 [2-methyl-2-ethyl-1,3-dioxolane]?
Answer: LCLo/24H (eye irritation - rabbit) [1]: 500 mg/24 H; LCLo/4 H (inhalation rat) [2]: 4,000 ppm/4 H; LD50 (oral rat) [3]: 2,830 μL/kg; solubility [4]: 3260 µg/mL (≈ 28.1 mM); DL50 (dermal rabbit) [5]: 10 mL/kg; Gel formation [6]: formation of a gel was seen; LCLo/24 H (skin rash - rabbit) [7]: 500 mg/24 H; Carcinogenicity listing [8]: not listed as carcinogenic
